We go through one compound from US20090117089A1, “GLYCOLIPIDS AND ANALOGUES THEREOF AS ANTIGENS FOR NK T CELLS” (The Rockefeller University, priority 2005, published 2009).

The subject of the experiment is Vα24i human NKT cell line. As to the kind of experiment: In vitro cytokine secretion assay using human NKT cell lines. It is filed as cell-based. The settings on record: CD14+ immature dendritic cells; 10 μg/ml glycolipid (1-10 μg/ml for 3-O-sulfo-α-galactosylceramide); 10 IU/ml IL-2. As for the experimental part: (§1) Human NKT cell lines, expressing the Vα24i T cell receptor as well as CD161, were generated as follows: Anti-CD161 monoclonal antibodies, and anti-CD14 monoclonal antibodies, each coupled to magnetic beads (Miltenyi biotec, Auburn, Calif.), were used sequentially to isolate CD161^+ cells and CD14^+ cells from leukopaks. Immature dendritic cells were generated from the CD14^+ cells after a two-day incubation in the presence of 300 U/ml GM-CSF (R&D systems, Minneapolis, Minn.) and 100 U/ml IL-4 (R&D systems, Minneapolis, Minn.). Following irradiation with 2000 rads, the immature dendritic cells were co-cultured with syngeneic CD161^+ cells in the presence of 100 ng/ml of alpha-galactosylceramide and 10 IU/ml of IL-2 (Invitrogen, Carlsbad Calif.) for 10 to 14 days. After stimulating the CD161^+ cells a second time with alpha-galactosylceramide-pulsed, irradiated immature dendritic cells, NKT cell lines were shown by flow cytometry to express both CD161^+ and V 24i TCR (99% purity).
IFN-γ and IL-4 secretion by the Vα 24i human NKT cell line was determined by ELISA (BD Pharmingen, San Diego, Calif.) after culture for 16 hours. For these assays, 1×10^5 Vα 24i human NKT cells were co-cultured with 4×10^5 irradiated, immature CD14^+ dendritic cells, in the presence of the glycolipid compounds at 10 μg/ml in a 96-well flat-bottom plate.
as §1, with “of 100-0.1” for “of 100”
In some cases, Hela cells were transfected with a human CD1d construct [Xing et al. 2005. Bioorg Med Chem 13: 2907], and were used to present the glycolipids, via pulsing with the respective compounds at the indicated concentration, to NKT lines.
IFN-γ secretion by the Vα 24i human NKT cell line was determined by ELISA (BD Pharmingen, San Diego, Calif.) after culture for 16 hours. For these assays, 1×10^5 Vα 24i human NKT cells were co-cultured with 4×10^5 irradiated, immature CD14^+ dendritic cells, in the presence of the glycolipid compounds at 10 μg/ml in a 96-well flat-bottom plate.

The structures appear in SMILES notation.

As for `CCCCCCCCCCCCCCCCCCCCCCCCCC(=O)N[C@@H](CO[C@H]1O[C@H](CO)[C@H](O)[C@H](O)[C@H]1O)[C@H](O)[C@H](O)CCCCCCCCCCCCCC` [α-GalCer, 2S,3S,4R-1-O(α-galactopyranosyl)-2(N-hexacosanoylamino)-1,3,4-octadecanetriol], the IFN-γ secretion entry is “greater IFN-γ and IL-4 secretion”; the IL-4 secretion entry was “greater IFN-γ and IL-4 secretion”.
